# “Also recorded” adds a separate entry of the source.
# Experiments:
# [1] = SPR analysis of glycan binding (all tested glycans); conditions: lectin immobilized on CM5 chip; glycans up to a concentration of 20 μM; FIG. 1B
# Procedure: SubBA12 was analysed for binding to a range of Neu5Ac, Neu5Gc and non-sialylated synthetic oligosaccharides using SPR.
# For glycan analysis, SubB2M was immobilized through flow cells 2 and 3 and SubBA12 was immobilized through flow cell 4 (capture levels: 5000-6000 Response Units (RU)) onto a series S sensor chip CM5 (GE) using the NHS capture kit. Flow cell 1 was run as a blank immobilization. Glycans purchased from Chemily Glycoscience (Atlanta, GA) were analysed across a five-fold dilution series in PBS at a maximum concentration of 20 μM. Analysis was run using single cycle analysis and double reference subtraction on the Biacore S200 evaluation software.
# [2] = Neu5Ac/Neu5Gc glycan microarray analysis; type: binding; conditions: ZBiotech Neu5Gc/Neu5Ac N-Glycan Array, FIG. 1A
# From the text: A Neu5Ac/Neu5Gc glycan microarray (as previously used in Wang et al, 2018, Biophys Biochem Res Commun 500:765-771; ZBiotech Neu5Gc/Neu5Ac N-Glycan Array) was utilised to determine the binding of SubBA12 to sialylated glycans with SubB2M used as a control. This glycan array comprises over 40 match pairs of glycans covalently linked to the array slide surface. Each pair of glycans is identical apart from the presence of either a Neu5Ac or Neu5Gc moiety.
# Neu5Ac/Neu5Gc glycan array slides were purchased from Z-Biotech (Aurora, Colorado, USA, https://www.zbiotech.com/neu5gc-neu5ac-n-glycan-array.html). A 16-subarray slide array was used and glycan array analysis of SubB2M and SubBA12 was performed as per the manufacturer's protocols. Arrays were scanned using a Innocan 1100AL laser scanner and analysed using Mapix array analysis software.
# [3] = Ser12>Ala12 mutation; described previously (Byres et al, 2008); cited from earlier work
substance,measurement,setting,value
SubBA12: mutant form of SubB (Ser12>Ala12) having the amino acid sequence of SEQ ID NO: 4; lacks or has substantially reduced sialic acid binding,binding (concentration dependent interaction) to any of the tested glycans by SPR,[1],No binding; also recorded: No concentration dependent interactions
same,binding to Neu5Ac-containing glycans on glycan array,[2],Essentially no binding; also recorded: little to no recognition
same,binding to Neu5Gc-containing glycans on glycan array,[2],Essentially no binding; also recorded: little to no recognition
same,binding to sialylated glycans,[3],cannot bind

# From patent US20240239846A1, “METHODS OF ANALYSING A SAMPLE” (THE UNIVERSITY OF ADELAIDE, priority 2021, published 2024)
